Like-named read-outs stand apart in the source and are kept apart here.
Target: T1, RARβ2 (Homo sapiens, UniProt P10826)
T1 construct: expressed in transfected cells
T1 sequence (P10826 1-448 isoform P10826-2): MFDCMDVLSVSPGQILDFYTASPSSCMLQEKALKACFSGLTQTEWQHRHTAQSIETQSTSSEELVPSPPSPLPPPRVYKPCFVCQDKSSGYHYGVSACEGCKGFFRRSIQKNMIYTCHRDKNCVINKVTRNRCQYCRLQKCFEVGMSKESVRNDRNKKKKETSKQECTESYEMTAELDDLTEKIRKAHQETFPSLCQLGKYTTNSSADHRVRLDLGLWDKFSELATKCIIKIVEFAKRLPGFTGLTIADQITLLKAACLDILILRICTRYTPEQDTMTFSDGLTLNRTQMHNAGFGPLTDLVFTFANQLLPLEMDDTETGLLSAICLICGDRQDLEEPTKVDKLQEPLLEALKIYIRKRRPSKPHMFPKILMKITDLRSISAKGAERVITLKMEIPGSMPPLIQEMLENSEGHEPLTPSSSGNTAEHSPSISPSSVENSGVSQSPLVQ
Experiment: Receptor Selection and Amplification Technology (R-SAT) functional receptor assay
Assay type: cell-based
Text: The functional receptor assay, Receptor Selection and Amplification Technology (R-SAT), was used to investigate the pharmacological properties of known and novel RARβ agonists and antagonists.
Efficacy is relative to the maximal response of the reference ligand, Am-580.

[1] = Table 2, efficacy relative to the maximal response of the reference ligand Am-580
[2] = Table 2, read-out: pEC50 (converted)
[3] = Table 1, efficacy relative to the maximal response of the reference ligand Am-580, read-out: % Eff.
[4] = Table 1, read-out: pEC50 (converted)
[5] = Table 1, efficacy relative to the maximal response of the reference ligand Am-580
[6] = Table 2, efficacy relative to the maximal response of the reference ligand Am-580, read-out: % Eff.

Row | Emax [3] [%] | EC50 [4] [nM] | Molecule | also measured
1 |  |  | CCCCCCCOc1ccc(-c2ccc(C(=O)OCCC#N)cc2)cc1 [Compound 39, 4′-Heptyloxy-biphenyl-4-carboxylic acid 2-cyano-ethyl ester] | % Eff. [1]: 42%; EC50 [2]: 174 nM
2 |  |  | 2-Fluoro-4-octyl[1,1′-biphenyl]-4-carboxylic acid [Compound 38] | pEC50 (Table 1): 6.81; % Eff. [5]: 70%
3 |  |  | CCCCCCCc1ccc(-c2ccc(C(=O)OCCc3ccccn3)c(F)c2)cc1 [Compound 7, 3-Fluoro-4′-heptyl-biphenyl-4-carboxylic acid 2-pyridin-2-yl-ethyl ester] | Emax [6]: 95%; EC50 [2]: 19.5 nM
4 |  |  | CCCCCCCCOc1ccc(-c2ccc(C(=O)OCCC#N)cc2)cc1 [Compound 42, 4′-Octyloxy-biphenyl-4-carboxylic acid 2-cyano-ethyl ester] | Emax [6]: 46%; EC50 [2]: 195 nM
5 | 36 | 891 | CCCCCCc1ccc(-c2ccc(C(=O)Nc3ccc(C)cn3)cc2)cc1 [Compound 63, 4′-Hexyl-biphenyl-4-carboxylic acid (5-methyl-pyridin-2-yl)-amide] | 
6 |  |  | CCCCCCCc1ccc(-c2ccc(C(=O)OCCC#N)cc2)cc1 [Compound 19, 4′-Heptyl-biphenyl-4-carboxylic acid 2-cyano-ethyl ester] | Emax [6]: 36%; EC50 [2]: 52.5 nM
7 | 42 | 123 | CCCCCCCc1ccc(-c2ccc(C(=O)O)c(F)c2)cc1 [Compound 36, 3-Fluoro-4′-heptyl[1,1′-biphenyl]-4-carboxylic acid] | 
8 |  |  | CCCCCCCCc1ccc(-c2ccc(C(=O)OCCc3ccccn3)cc2)cc1 [Compound 40] | pEC50 (Table 2): 6.75; % Eff. [1]: 82%
9 |  |  | CCCCCCCc1ccc(-c2ccc(C(=O)OCc3ccco3)cc2)cc1 [Compound 17, 4′-Heptyl-biphenyl-4-carboxylic acid furan-2-ylmethyl Ester] | % Eff. [1]: 33%; EC50 [2]: 45.7 nM
10 |  |  | 4-Heptyl-3-methyl[1,1′-biphenyl]-4-carboxylic acid [Compound 52] | pEC50 (Table 1): 6.41; % Eff. [5]: 45%
11 | 65 |  | CC(C)CCCCOc1ccc(-c2ccc(C(=O)O)cc2)cc1 [Compound 25, 4′-(5-Methyl-hexyloxy)-biphenyl-4-carboxylic acid] | pEC50 (Table 1): 7.20
12 | 39 | 661 | CCCCCCCCOc1ccc(-c2ccc(C(=O)NCCc3ccccn3)cc2)cc1 [Compound 54, 4′-Octyloxy-biphenyl-4-carboxylic acid (2-pyridin-2-yl-ethyl)-amide] | 
13 | 59 |  | CCCC1CCCC(c2ccc(-c3ccc(C(=O)O)cc3)cc2)CC1 (stereo not drawn) [Compound 49] | pEC50 (Table 1): 6.55
14 | 37 | 832 | CCCCNC(=O)COc1nc(-c2ccc(C(=O)O)cc2)sc1C [Compound 62, 4-(4-Butylcarbamoylmethoxy-5-methyl-thiazol-2-yl)-benzoic acid] | 
15 | 49 | 135 | CCCCCCCc1ccc(-c2ccc(C(=O)NO)cc2)cc1 [Compound 37, 4′-Heptyl-biphenyl-4-carboxylic acid hydroxyamide] | 
16 | 39 | 2.29 | CCCCCCCCc1ccc(-c2ccc(C(=O)O)cc2C)cc1 [Compound 1, 2-Methyl-4′-octyl[1,1′-hiphenyl]-4-carboxylic acid] | 
17 | 66 | 708 | Cc1sc(-c2ccc(C(=O)O)cc2)nc1OCC(=O)NC1CCC(C)CC1 (stereo not drawn) [Compound 58, 4-[5-Methyl-4-[2-[(4-methylcyclohexyl)amino]-2-oxoethoxy]-2-thiazolyl]-benzoic acid] | 
18 | 70 |  | CCCCCCCCOc1ccc(-c2ccc(C(=O)O)cc2)cc1 [Compound 32] | pEC50 (Table 1): 7.02
19 | 80 | 95.5 | CCCCCCCCc1ccc(-c2ccc(C(=O)C(=O)O)cc2)cc1 [Compound 31, (4′-Octyl-biphenyl-4-yl)-oxo-acetic acid] | 
20 | 126 | 7.94 | CCCCCCCCCc1ccc(-c2ccc(C(=O)O)cc2)cc1 [Compound 2, 4′-Nonyl-biphenyl-4-carboxylic acid] | 
21 |  |  | O=C(O)c1ccc(-c2ccc(OCCC=C(C3CC3)C3CC3)cc2)cc1 [Compound 26, 4′[(4,4-Dicyclopropyl-3-butenyl)oxy][1,1-biphenyl]-4-carboxylic acid] | % Eff. [5]: 36%

Row | Emax [3] [%] | EC50 [4] [nM] | Molecule | also measured
22 |  |  | CCCCCCCc1ccc(-c2ccc(C(=O)OCc3ccco3)cc2)cc1 [Compound 21] | pEC50 (Table 2): 7.26; % Eff. [1]: 106%
23 | 44 |  | CCCCCc1ccc(-c2ccc(C(=O)O)cc2)cc1 [Compound 4] | pEC50 (Table 1): 7.82
24 | 98 |  | CCCCCCCCCCOc1ccc(-c2ccc(C(=O)O)cc2)cc1 [Compound 20] | pEC50 (Table 1): 7.26
25 |  |  | O=C(O)c1ccc(-c2ccc(OCCC=C(C3CC3)C3CC3)cc2)cc1 [Compound 47, 4′-(4,4-Dicyclopropyl-but-3-enyloxy)-biphenyl-4-carboxylic acid] | % Eff. [5]: 58%
26 | 39 | 832 | Cc1sc(-c2ccc(C(=O)O)cc2)nc1OCC(=O)NC1CCCC1 [Compound 61, 4-(4-Cyclopentylcarbamoylmethoxy-5-methyl-thiazol-2-yl)-benzoic acid] | 
27 | 105 | 676 | Cc1sc(-c2ccc(C(=O)O)cc2)nc1OCC(=O)NC1CCCCCC1 [Compound 56, 4-(4-Cycloheptycarbamoylmethoxy-5-methyl-thiazol-2-yl)-benzoic acid] | 
28 | 36 | 57.5 | CCCCCCCc1ccc(-c2ccc(C(=O)O)cc2F)cc1 [Compound 22, 2-Fluoro-4′-heptyl[1,1′-biphenyl]-4-carboxylic acid] | 
29 |  |  | CCCCCCCOc1ccc(-c2ccc(C(=O)OCCC#N)cc2)cc1 [Compound 23, 4′-Heptyloxy-biphenyl-4-carboxylic acid 2-cyano-ethyl ester] | Emax [6]: 46%; EC50 [2]: 60.3 nM
30 | 35 | 776 | CCCCCCCc1ccc(-c2ccc(C(=O)NCCc3ccccn3)cc2)cc1 [Compound 59, 4′-Heptyl-biphenyl-4-carboxylic acid (2-pyridin-2-yl-ethyl)-amide] | 
31 | 78 | 257 | CCCCCCCc1ccc(-c2ccc(C(=O)NN)cc2)cc1 [Compound 45, 4′-Heptyl-biphenyl-4-carboxylic acid hydrazide] | 
32 |  |  | Imidazol-1-yl-(4-octyl-biphenyl-4-yl)-methanone [Compound 8] | pEC50 (Table 1): 7.66; % Eff. [5]: 79%
33 | 98 | 110 | CCCOCCOc1nc(-c2ccc(C(=O)O)cc2)sc1C [Compound 33, 4-[5-Methyl-4-(2-propoxy-ethoxy)-thiazol-2-yl]-benzoic acid] | 
34 |  |  | CCCCCCCCc1ccc(-c2ccc(C(=O)OCCC#N)cc2)cc1 [Compound 34, 4′-Octyl-biphenyl-4-carboxylic acid 2-cyano-ethyl ester] | Emax [6]: 71%; EC50 [2]: 112 nM
35 | 85 | 41.7 | CCCCCCNC(=O)COc1nc(-c2ccc(C(=O)O)cc2)sc1C [Compound 13, 4-(4-Hexylcarbamoylmethoxy-5-methyl-thiazol-2-yl)-benzoic acid] | 
36 |  |  | CCCCCCCCc1ccc(-c2ccc(C(=O)OCCc3ccccn3)cc2)cc1 [Compound 28] | pEC50 (Table 2): 7.09; % Eff. [1]: 70%
37 |  | 26.3 | CCCCCCCc1ccc(-c2ccc(C(=O)O)cc2)cc1 [Compound 10, 4′-Heptyl[1,1′-biphenyl]-4-carboxylic acid] | % Eff. [5]: 64%
38 |  |  | CCCCCCCCc1ccc(-c2ccc(C(=O)OCc3ccco3)cc2)cc1 [Compound 48, 4′-Octyl-biphenyl-4-carboxylic acid furan-2-ylmethyl ester] | Emax [6]: 49%; EC50 [2]: 275 nM
39 | 72 |  | CCCCCCOc1ccc(-c2ccc(C(=O)O)cc2)cc1 [Compound 12] | pEC50 (Table 1): 7.54
40 |  |  | CCCCCCCCc1ccc(-c2ccc(C(=O)O)cc2)cc1 [Compound 35] | pEC50 (Table 1): 6.94; % Eff. [5]: 83%
41 |  |  | CCCCCCOc1ccc(-c2ccc(C(=O)OCc3ccco3)cc2)cc1 [Compound 41, 4′-Hexyloxy-biphenyl-4-carboxylic acid furan-2-ylmethyl ester] | Emax [6]: 25%; EC50 [2]: 178 nM
42 |  |  | CCCCCCCOc1ccc(-c2ccc(C(=O)OCCc3ccccn3)cc2)cc1 [Compound 30, 4′-Heptyloxy-biphenyl-4-carboxylic acid 2-pyridin-2-yl-ethyl ester] | Emax [6]: 62%; EC50 [2]: 91.2 nM

Row | Molecule | Emax [3] [%] | EC50 [4] [nM] | also measured
43 | CCCCOCCOc1nc(-c2ccc(C(=O)O)cc2)sc1C [Compound 27, 4-[4-(2-Butoxy-ethoxy)-5-methyl-thiazol-2-yl]-benzoic acid] | 95 | 75.9 | 
44 | CCCCOCCOc1cc(C)c(-c2ccc(C(=O)O)cc2)cc1C [Compound 44, 4′-(2-Butoxyethoxy)-2′,5′-dimethyl[1,1-biphenyl]-4-carboxylic acid] | 41 | 245 | 
45 | CCCCCCCCN1CCN(c2ccc(C(=O)O)cc2)CC1 [Compound 50, 4-(4-Octyl-piperazin-1-yl)-benzoic acid] | 85 |  | EC50 (pEC50, Table 1): 295 nM
46 | CCCCOCCOc1ccc(-c2ccc(C(=O)O)cc2)cc1 [Compound 18, 4′-(2-Butoxyethoxy)-[1,1-biphenyl]-4-carboxylic acid] | 108 | 47.9 | 

— US20090176837A1, “COMPOUNDS WITH ACTIVITY AT RETINOIC ACID RECEPTORS” (SONY CORPORATION, priority 2006, published 2009)
